This is an account of results in US20030109522A1, “Ophthalmologic treatment methods using selective iNOS inhibitors” (priority 2001, published 2003).

The test system of one data set is retinal ganglion cells. To be noted: rats with chronic moderately elevated IOP; cited from earlier work.
A further data set deals with T1, hiNOS (Homo sapiens, UniProt P35228).
T1 construct: made in house; host or cells: Sf9 insect cells, baculovirus vector
The experiment in a line: Assay for time dependent inhibition, hiNOS. The note with it: 2.2 μM. It counts as biochemical. How it is done: (§1) Assay for Time Dependent Inhibition
(§2) Aliquots (10 μL) are removed at 0, 10,21 and 60 minutes and immediately added to a citrulline assay enzyme reaction mixture containing L-[2,3-^3H]-arginine and a final L-arginine concentration of 30 μM in a final volume of 100 μL. The reaction is allowed to proceed for 15 minutes at 37° C. and terminated by addition of stop buffer and chromatography with Dowex 50W X-8 cation exchange ion exchange resin as described for the citrulline NOS assay. The % inhibition of NOS activity by an inhibitor was taken as the percent inhibition in activity compared to control enzyme preincubated for the same time in the absence of inhibitor.

For data set [1], the target named is T2, human neuronal constitutive NOS (hncNOS) (Homo sapiens, UniProt P29475).
T2 construct: made in house; host or cells: Sf9 insect cells, baculovirus vector
T2 sequence (P29475 whole entry): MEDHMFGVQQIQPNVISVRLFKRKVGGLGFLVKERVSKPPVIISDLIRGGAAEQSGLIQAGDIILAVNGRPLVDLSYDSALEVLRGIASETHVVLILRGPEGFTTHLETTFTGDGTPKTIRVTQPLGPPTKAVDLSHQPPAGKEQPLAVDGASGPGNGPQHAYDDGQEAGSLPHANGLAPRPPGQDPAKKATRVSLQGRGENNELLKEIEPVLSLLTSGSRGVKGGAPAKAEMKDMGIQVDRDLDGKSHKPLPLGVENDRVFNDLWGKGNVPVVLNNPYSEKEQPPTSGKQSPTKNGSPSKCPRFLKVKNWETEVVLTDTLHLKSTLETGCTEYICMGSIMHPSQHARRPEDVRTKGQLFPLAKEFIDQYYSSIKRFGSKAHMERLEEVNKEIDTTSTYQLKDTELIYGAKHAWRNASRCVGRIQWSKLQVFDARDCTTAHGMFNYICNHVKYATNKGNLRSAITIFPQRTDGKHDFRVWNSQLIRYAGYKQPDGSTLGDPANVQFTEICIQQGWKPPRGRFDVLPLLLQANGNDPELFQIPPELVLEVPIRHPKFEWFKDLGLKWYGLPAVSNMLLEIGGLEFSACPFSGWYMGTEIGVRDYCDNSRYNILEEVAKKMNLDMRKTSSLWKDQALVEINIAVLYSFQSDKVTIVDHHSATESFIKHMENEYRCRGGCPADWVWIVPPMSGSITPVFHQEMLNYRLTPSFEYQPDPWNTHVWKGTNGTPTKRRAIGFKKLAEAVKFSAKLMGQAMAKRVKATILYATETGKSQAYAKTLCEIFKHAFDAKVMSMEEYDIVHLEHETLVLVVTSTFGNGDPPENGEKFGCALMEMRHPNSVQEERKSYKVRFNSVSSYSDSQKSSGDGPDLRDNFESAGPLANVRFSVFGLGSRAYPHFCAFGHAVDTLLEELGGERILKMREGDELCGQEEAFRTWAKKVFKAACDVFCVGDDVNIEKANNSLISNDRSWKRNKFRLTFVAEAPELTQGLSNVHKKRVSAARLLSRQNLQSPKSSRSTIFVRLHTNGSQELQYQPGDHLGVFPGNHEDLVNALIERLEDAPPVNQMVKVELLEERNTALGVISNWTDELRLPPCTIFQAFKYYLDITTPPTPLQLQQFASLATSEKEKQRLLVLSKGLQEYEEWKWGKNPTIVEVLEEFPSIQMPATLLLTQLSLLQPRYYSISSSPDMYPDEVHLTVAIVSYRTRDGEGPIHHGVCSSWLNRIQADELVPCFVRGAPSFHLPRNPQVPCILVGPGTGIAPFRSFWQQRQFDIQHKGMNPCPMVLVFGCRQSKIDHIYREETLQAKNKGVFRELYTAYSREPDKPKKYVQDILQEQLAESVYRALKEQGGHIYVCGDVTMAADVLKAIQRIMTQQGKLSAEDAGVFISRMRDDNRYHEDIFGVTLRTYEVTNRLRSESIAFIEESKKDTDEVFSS
The experiment in a line: Citrulline assay for nitric oxide synthase, hncNOS. It counts as biochemical. The note with it: averages across all experiments and all lots; 30 μM L-arginine.
Method: (§3) Citrulline Assay for Nitric Oxide Synthase
(§4) To measure NOS activity, 10 μL of enzyme is added to 40 μL of 50 mM Tris (pH 7.6) in the presence or absence of test compounds and the reaction initiated by the addition of 50 μL of a reaction mixture containing 50 mM Tris (pH 7.6), 2.0 mg/mL bovine serum albumin, 2.0 mM DTT, 4.0 mM CaCl2, 20 μM FAD, 100 μM tetrahydrobiopterin, 0.4 mM NADPH and 60 μL-arginine containing 0.9 μCi of L-[2,3-^3H]-arginine. The final concentration of L-arginine in the assay is 30 μM. For hecNOS or hncNOS, calmodulin is included at a final concentration of 40-100 nM. Following incubation at 37° C. for 15 minutes, the reaction is terminated by addition of 400 μL of a suspension (1 part resin, 3 parts buffer) of Dowex 50W X-8 cation exchange resin in a stop buffer containing 10 mM EGTA, 100 mM HEPES, pH 5.5 and 1 mM L-citrulline. After mixing the resin is allowed to settle and L-[2,3-^3H]-Citrulline formation is determined by counting aliquots of the supernatant with a liquid scintillation counter.

For another data set, the target named is T3, hecNOS (Homo sapiens, UniProt P29474).
T3 construct: made in house; host or cells: Sf9 insect cells, baculovirus vector
The experiment in a line: Assay for time dependent inhibition, hecNOS. In kind it is biochemical. The method, then:
as §1, §2

Another data set deals with T4, hncNOS (Homo sapiens, UniProt P29475).
T4 construct: made in house; host or cells: Sf9 insect cells, baculovirus vector
The experiment in a line: Assay for time dependent inhibition, hncNOS. The note with it: 0.9 μM. It counts as biochemical. How it is done:
as §1, §2

Data set [2] deals with nitrite production in human cartilage explants. The experiment in a line: Human cartilage explant assay (IL-1 induced nitrite production). To be noted: Homo sapiens; inhibition of nitrite production, IL-1 stimulated explants. It counts as cell-based. The method, then:
Human Cartilage Explant Assay
Bone pieces are rinsed twice with Dulbecco's Phosphate Buffered Saline (GibcoBRL) and once with Dulbecco's Modified Eagles Medium (GibcoBRL) and placed into a petri dish with phenol red free Minimum Essential Medium (MEM) (GibcoBRL). Cartilage was cut into small explants of approximately 15-45 mg in weight and one or two explants per well are placed into either 96 or 48 well culture plates with 200-500 μL of culture media per well. The culture media was either a custom modification of Minimum Essential Medium(Eagle) with Earle's salts (GibcoBRL) prepared without L-Arginine, without L-Glutamine and without phenol red or a custom modification of serumless Neuman and Tytell (GibcoBRL) medium prepared without L-arginine, without insulin, without ascorbic acid, without L-glutamine and without phenol red. Both are supplemented before use with 100 μM L-Arginine (Sigma), 2 mM L-glutamine, 1×HL-1 supplement (BioWhittaker), […] ascorbic acid (Sigma) and 150 pg/ml recombinant human IL-1[…] (RD Systems) to induce nitric oxide synthase. Compounds are then added in 10 μL aliquots and the explants incubated at 37° C. with 5% CO2 for 18-24 hours. The day old supernatant is then discarded and replaced with fresh culture media containing recombinant human IL-1 ? and compound and incubated for another 20-24 hours. […] All samples are done in quadruplicate. Unstimulated controls are cultured in media in the absence of recombinant human IL-1[…]. IC50 values (Table I) are determined from plotting the percent inhibition of nitrite production at six different concentrations of inhibitor.

Data set [3] addresses T5, human endothelial constitutive NOS (hecNOS) (Homo sapiens, UniProt P29474).
T5 construct: made in house; host or cells: Sf9 insect cells, baculovirus vector
The data set can be described thus: Citrulline assay for nitric oxide synthase, hecNOS. It counts as biochemical. To be noted: averages across all experiments and all lots; 30 μM L-arginine.
Method: as §3, §4

Data set [4] concerns LPS-induced increase in plasma nitrite/nitrate levels. The data set can be described thus: In vivo assay, endotoxin-treated rats. The note with it: Rattus norvegicus, po, administered orally, plasma nitrite/nitrate 5 hours post-treatment, read-out: ED50. How it is done: Plasma nitrite/nitrate levels can be determined 5 hours post-treatment.
In data set [5] the target is T6, Human inducible NOS (hiNOS) (Homo sapiens, UniProt P35228).
T6 construct: made in house; host or cells: Sf9 insect cells, baculovirus vector
T6 sequence (P35228 whole entry): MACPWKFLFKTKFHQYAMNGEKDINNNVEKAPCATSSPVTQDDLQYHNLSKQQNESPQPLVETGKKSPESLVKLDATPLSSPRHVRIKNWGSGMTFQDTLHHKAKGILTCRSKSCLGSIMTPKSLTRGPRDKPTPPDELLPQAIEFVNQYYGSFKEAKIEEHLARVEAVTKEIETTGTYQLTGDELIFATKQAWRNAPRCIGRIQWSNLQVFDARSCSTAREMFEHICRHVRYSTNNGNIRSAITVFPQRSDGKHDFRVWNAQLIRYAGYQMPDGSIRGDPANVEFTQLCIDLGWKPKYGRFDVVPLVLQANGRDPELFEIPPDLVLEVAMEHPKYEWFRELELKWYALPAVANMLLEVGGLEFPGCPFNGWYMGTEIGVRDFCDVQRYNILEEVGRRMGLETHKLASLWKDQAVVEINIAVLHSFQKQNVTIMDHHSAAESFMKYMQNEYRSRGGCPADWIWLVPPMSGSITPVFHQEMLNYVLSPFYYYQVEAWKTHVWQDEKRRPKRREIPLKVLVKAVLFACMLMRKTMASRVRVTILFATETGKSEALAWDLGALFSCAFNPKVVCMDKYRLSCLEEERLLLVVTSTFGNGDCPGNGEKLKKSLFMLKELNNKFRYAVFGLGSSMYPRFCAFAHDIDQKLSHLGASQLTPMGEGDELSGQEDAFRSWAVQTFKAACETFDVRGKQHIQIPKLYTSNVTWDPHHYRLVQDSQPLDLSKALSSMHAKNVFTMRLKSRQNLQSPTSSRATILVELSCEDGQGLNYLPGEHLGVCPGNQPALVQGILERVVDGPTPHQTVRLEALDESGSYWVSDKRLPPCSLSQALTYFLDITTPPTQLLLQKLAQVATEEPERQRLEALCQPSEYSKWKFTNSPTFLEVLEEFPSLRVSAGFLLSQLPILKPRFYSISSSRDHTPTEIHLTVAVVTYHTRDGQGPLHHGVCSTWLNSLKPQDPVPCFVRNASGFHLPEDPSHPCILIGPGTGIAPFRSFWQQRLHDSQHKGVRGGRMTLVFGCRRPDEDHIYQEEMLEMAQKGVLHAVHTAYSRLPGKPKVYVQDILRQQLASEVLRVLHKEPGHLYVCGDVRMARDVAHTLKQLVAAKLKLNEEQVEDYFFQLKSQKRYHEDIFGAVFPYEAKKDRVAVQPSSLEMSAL
The data set can be described thus: Citrulline assay for nitric oxide synthase, hiNOS. It counts as biochemical. To be noted: averages across all experiments and all lots; 30 μM L-arginine.
Method: as §3, §4

T5 sequence (P29474 2-1203): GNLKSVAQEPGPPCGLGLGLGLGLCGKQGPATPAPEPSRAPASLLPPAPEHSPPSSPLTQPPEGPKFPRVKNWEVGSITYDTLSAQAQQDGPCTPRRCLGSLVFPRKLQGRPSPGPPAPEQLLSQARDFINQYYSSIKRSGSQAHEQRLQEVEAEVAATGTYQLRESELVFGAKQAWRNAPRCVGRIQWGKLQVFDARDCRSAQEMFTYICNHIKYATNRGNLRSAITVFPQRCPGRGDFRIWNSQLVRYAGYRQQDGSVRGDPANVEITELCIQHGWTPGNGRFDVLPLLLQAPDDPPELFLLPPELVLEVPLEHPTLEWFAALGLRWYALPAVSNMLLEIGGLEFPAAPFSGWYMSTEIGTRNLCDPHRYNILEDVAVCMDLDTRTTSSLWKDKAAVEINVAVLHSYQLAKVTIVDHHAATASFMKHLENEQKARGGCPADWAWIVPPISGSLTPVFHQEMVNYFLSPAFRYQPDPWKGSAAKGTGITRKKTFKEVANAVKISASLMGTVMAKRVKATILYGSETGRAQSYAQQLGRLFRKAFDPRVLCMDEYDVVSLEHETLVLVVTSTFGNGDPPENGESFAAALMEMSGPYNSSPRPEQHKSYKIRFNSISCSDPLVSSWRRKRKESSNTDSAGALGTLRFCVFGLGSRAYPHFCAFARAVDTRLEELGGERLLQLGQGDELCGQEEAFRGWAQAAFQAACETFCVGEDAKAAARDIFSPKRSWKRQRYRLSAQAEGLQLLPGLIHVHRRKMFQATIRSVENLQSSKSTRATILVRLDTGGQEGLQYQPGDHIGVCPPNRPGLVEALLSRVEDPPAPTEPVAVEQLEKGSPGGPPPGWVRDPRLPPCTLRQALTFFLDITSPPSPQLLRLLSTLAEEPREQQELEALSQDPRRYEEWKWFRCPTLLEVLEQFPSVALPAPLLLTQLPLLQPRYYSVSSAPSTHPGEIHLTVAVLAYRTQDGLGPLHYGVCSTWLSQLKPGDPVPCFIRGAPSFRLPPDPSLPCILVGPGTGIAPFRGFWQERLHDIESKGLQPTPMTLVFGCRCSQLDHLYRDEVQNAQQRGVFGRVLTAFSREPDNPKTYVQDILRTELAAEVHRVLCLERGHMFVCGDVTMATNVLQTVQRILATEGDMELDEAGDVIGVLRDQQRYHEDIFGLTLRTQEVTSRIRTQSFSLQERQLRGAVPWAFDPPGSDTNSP

For `N=C(N)NN` [aminoguanidine], the “loss of retinal ganglion cells” value with retinal ganglion cells is “blocks loss of retinal ganglion cells”.
As to `N=C1CCCC[C@H](C/C=C\C[C@H](N)C(=O)O)N1` [Example AA, (2S,4Z)-2-amino-6-[(2R)-hexahydro-7-imino-1H-azepin-2-yl]-4-hexenoic Acid], the inhibition at 2.2 µM was 96% against hiNOS (21 min preincubation); 97% against hiNOS (60 min preincubation); 55% at hecNOS (2.2 μM, 60 min preincubation). In addition, the IC50 in [1] was under 3 µM; in data set [2], under 3 µM; in data set [3], over 5 µM; in data set [5] it was under 3 µM. The inhibition at 5.7 µM against hecNOS (5.7 μM, 21 min preincubation) came to 58%. The inhibition at 0.9 µM is 34% at hncNOS (21 min preincubation) and 0% against hncNOS (60 min preincubation). Besides, the ED50 in data set [4] was under 10 mg/kg.
`CC(=NO)NC/C(F)=C\CC[C@H](N)C(=O)O` [Example G, (2S,5E)-2-amino-6-fluoro-7-[(1-hydroximinoethyl)amino]-5-heptenoic Acid] had a melting point of 198 to 200 °C. For the same compound, in data set [4], the median effective dose (ED50) is under 0.1 mg/kg.

For orientation: inhibition means the drop in the measured response relative to a control, in per cent. Read a high inhibition as a strong effect. A word on the IC50: it is the midpoint of a concentration-inhibition curve. Read a high IC50 as weaker potency in that assay. A word on the ED50: it is the midpoint of the dose-response relation. One may read the melting point as the temperature of the solid-liquid transition.
